Holding throughout (assay type): cell-based
In test [1] the target is Free fatty acid receptor 1 (Homo sapiens) (UniProt O14842). Put plainly: Agonist activity at human GPR40 expressed in rat INS1(832/13) cells harboring human proinsulin assessed as increase in glucose-stimulated insulin secretion at 20 to 40 uM incubated for 5 mins by ELISA.
Test [2] shares this target. Briefly: Agonist activity at human GPR40 expressed in rat INS1(832/13) cells harboring human proinsulin assessed as increase in glucose-stimulated insulin secretion at 10 uM incubated for 5 mins in presence of GPR40 antagonist DC260126 by ELISA. On the technique in general: In an ELISA, binding on a coated surface is turned into a signal by an enzyme label.
Test [3] has the same target. Briefly: Agonist activity at human GPR40 expressed in rat INS1(832/13) cells harboring human proinsulin assessed as increase in glucose-stimulated insulin secretion at 40 uM incubated for 5 mins in presence of GPR40 antagonist DC260126 by ELISA.
Test [4] has the same target. Briefly: Partial agonist activity at human GPR40 expressed in rat INS1(832/13) cells harboring human proinsulin assessed as potentiation of 2.5 uM AV1-induced increase in glucose-stimulated insulin secretion at 40 uM by ELISA.
For test [5] the target is unchanged. Briefly: Partial agonist activity at human GPR40 expressed in rat INS1(832/13) cells harboring human proinsulin assessed as potentiation of 2.5 uM AV1-induced increase in glucose-stimulated insulin secretion at 21 uM by ELISA.
Test [6] has the same target. Briefly: Antagonist activity at human GPR40 expressed in rat INS1(832/13) cells harboring human proinsulin assessed as inhibition of 20 uM AV1-induced increase in glucose-stimulated insulin secretion at 40 uM by ELISA.
Test [7] shares this target. Put plainly: Antagonist activity at human GPR40 expressed in rat INS1(832/13) cells harboring human proinsulin assessed as inhibition of 20 uM AV1-induced increase in glucose-stimulated insulin secretion at 21 uM by ELISA.
Test [8] has the same target. Briefly: Partial agonist activity at human GPR40 expressed in rat INS1(832/13) cells harboring human proinsulin assessed as potentiation of 10 uM AV1-induced increase in glucose-stimulated insulin secretion by ELISA.

Active and inactive are the calls of the source. The rule behind the calls is not given here.

Free fatty acid receptor 1 (Homo sapiens), sequence (O14842 whole entry): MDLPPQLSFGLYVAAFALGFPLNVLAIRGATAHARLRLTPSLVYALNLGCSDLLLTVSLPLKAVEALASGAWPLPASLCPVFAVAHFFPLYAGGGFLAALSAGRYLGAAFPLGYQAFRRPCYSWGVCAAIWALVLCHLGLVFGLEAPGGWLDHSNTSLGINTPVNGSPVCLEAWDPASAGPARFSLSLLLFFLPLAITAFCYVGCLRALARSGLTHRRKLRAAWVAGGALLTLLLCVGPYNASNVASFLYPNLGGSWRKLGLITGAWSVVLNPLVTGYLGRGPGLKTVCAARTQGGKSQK

Consider `CCCCCCCC/C=C\CCCCCCCC(=O)Oc1c(-c2ccc3c(c2)OC(c2ccccc2)(c2ccccc2)O3)oc2cc(O)cc(O)c2c1=O`, for which the result in test [1] was Active. In addition, the outcome in test [2] was inactive.

For the compound `CCCCCCCC/C=C\CCCCCCCC(=O)Oc1c(-c2ccc(O)c(O)c2)oc2cc(O)cc(O)c2c1=O`, the result in test [1], in test [4], in test [5], in test [6] and in test [7] was Active. In test [3], the result was inactive. Further, in test [8], the Activity entry is “Dose-dependent effect”.

The values above are taken from ChEMBL document CHEMBL4340564, “Quercetin-3-oleoyl derivatives as new GPR40 agonists: Molecular docking studies and functional evaluation” (Bioorg Med Chem Lett, 2019).
